Results: patent US7713714B2, “Isolated nona- and decapeptides which bind to HLA molecules, and the use thereof” (Ludwig Institute for Cancer Research, priority 1997, dated 2010)
Read-outs that look alike come from different tables or passages of the source.

Key:
CTL clone M77.86 = experiment: 51Cr assay, recognition by Melan-A specific CTL clone M77.86; assay type: cell-based, human; conditions: Table IV; for EC50: read-out: Peptide [nM] 50%; for Relative activity: relative to SEQ ID NO: 2
CTL clone 7.10 = experiment: 51Cr assay, recognition by Melan-A specific CTL clone 7.10; assay type: cell-based, human; conditions: Table IV; for EC50: read-out: Peptide [nM] 50%; for Relative activity: relative to SEQ ID NO: 2
[1] = system: Melan-A specific CTL clone; experiment: 51Cr assay, recognition by Melan-A specific CTL clone (third clone, name not given); assay type: cell-based, human; conditions: Table IV; for EC50: read-out: Peptide [nM] 50%; for Relative activity: relative to SEQ ID NO: 2
CTL clone M77.80 = experiment: 51Cr assay, recognition by Melan-A specific CTL clone M77.80; assay type: cell-based, human; conditions: Table IV; for EC50: read-out: Peptide [nM] 50%; for Relative activity: relative to SEQ ID NO: 2
CTL clone 1.13 = experiment: 51Cr assay, recognition by Melan-A specific CTL clone 1.13; assay type: cell-based, human; conditions: Table IV; for EC50: read-out: Peptide [nM] 50%; for Relative activity: relative to SEQ ID NO: 2
HLA-A*0201 [2] = target: T1, HLA-A*0201 (Homo sapiens, UniProt P04439, D140Y/D185E/D98H/E176V/E277Q/G131W/G231S/I119V/I121R/I166T/I218V/L300P/L318F/N151K/N90K/P208A/P217A/Q86G/Q94H/R138H/R169H/T345S)
TILN LAU 203 = experiment: 51Cr release assay, TILN recognition of peptide on T2 cells, TILN LAU 203
TILN LAU 132 = experiment: 51Cr release assay, TILN recognition of peptide on T2 cells, TILN LAU 132
[3] = system: five HLA-A*0201 restricted Melan-A specific CTL clones; experiment: Recognition by five HLA-A*0201 restricted Melan-A specific CTL clones, statements; assay type: cell-based, human; conditions: compared with SEQ ID NO: 2
panel of the CTLs = experiment: Recognition assay dissecting the CTL panel (Example 10)
HLA-A*0201 [4] = target: T1, HLA-A*0201; conditions: Table II; relative to SEQ ID NO: 2
HLA-A*0201 [5] = target: T1, HLA-A*0201; remark: listed apart in the source
HLA-A*0201 [6] = target: T1, HLA-A*0201; conditions: relative to SEQ ID NO: 1
HLA-A*0201 [7] = target: T1, HLA-A*0201; conditions: fluorescence index, 16 hours, 23° C.
[8] = read-out:, Table III, dose response, T2 cells
[9] = Table III, relative to SEQ ID NO: 2
[10] = Table I, [nM]50% SEQ ID NO: 2 / [nM]50% test peptide
[11] = read-out: Peptide [nM] 50%, Table I, T2 targets, effector:target 30:1, concentration giving 50% of maximum activity

CC[C@H](C)[C@H](NC(=O)CNC(=O)[C@H](CC(C)C)NC(=O)[C@H](C)N)C(=O)NCC(=O)N[C@H](C(=O)N[C@@H](CC(C)C)C(=O)N[C@H](C(=O)N[C@H](C(=O)O)C(C)C)[C@@H](C)O)[C@@H](C)CC [SEQ ID NO: 5]
EC50 (CTL clone M77.86): 90 nM
EC50 (CTL clone 7.10): > 1000 nM
EC50 [1]: > 1000 nM
EC50 (CTL clone M77.80): > 1000 nM
EC50 (CTL clone 1.13): > 10000 nM
stability of peptide/HLA-A*0201 complexes (HLA-A*0201 [2]): intermediate stability
EC50 (TILN LAU 203; [8]): > 1000 nM
EC50 (TILN LAU 132; [8]): > 1000 nM

CC[C@H](C)[C@H](NC(=O)CNC(=O)[C@H](CCSC)NC(=O)[C@H](C)N)C(=O)NCC(=O)N[C@H](C(=O)N[C@@H](CC(C)C)C(=O)N[C@H](C(=O)N[C@H](C(=O)O)C(C)C)[C@@H](C)O)[C@@H](C)CC [SEQ ID NO: 6]
EC50 (CTL clone M77.86): > 1000 nM
EC50 (CTL clone 7.10): > 1000 nM
EC50 [1]: > 1000 nM
EC50 (CTL clone M77.80): > 1000 nM
EC50 (CTL clone 1.13): > 10000 nM
stability of peptide/HLA-A*0201 complexes (HLA-A*0201 [2]): intermediate stability
EC50 (TILN LAU 203; [8]): > 1000 nM
EC50 (TILN LAU 132; [8]): > 1000 nM

CC[C@H](C)[C@H](NC(=O)CNC(=O)[C@H](C)NC(=O)[C@@H](N)CCSC)C(=O)NCC(=O)N[C@H](C(=O)N[C@@H](CC(C)C)C(=O)N[C@H](C(=O)N[C@H](C(=O)O)C(C)C)[C@@H](C)O)[C@@H](C)CC [SEQ ID NO: 8]
EC50 (CTL clone M77.86): 0.6 nM
EC50 (CTL clone 7.10): 15 nM
EC50 [1]: 200 nM
EC50 (CTL clone M77.80): 0.5 nM
EC50 (CTL clone 1.13): 80 nM
stability of peptide/HLA-A*0201 complexes (HLA-A*0201 [2]): unstable complexes, which decay within one hour
EC50 (TILN LAU 203; [8]): 8 nM
EC50 (TILN LAU 132; [8]): 2.5 nM

CC[C@H](C)[C@H](NC(=O)CNC(=O)[C@H](CC(C)C)NC(=O)[C@H](C)NC(=O)[C@@H](N)CCC(=O)O)C(=O)NCC(=O)N[C@H](C(=O)N[C@@H](CC(C)C)C(=O)N[C@H](C(=O)N[C@H](C(=O)O)C(C)C)[C@@H](C)O)[C@@H](C)CC [SEQ ID NO: 11]
EC50 (CTL clone M77.86): 0.015 nM
EC50 (CTL clone 7.10): 0.5 nM
EC50 [1]: 0.015 nM
EC50 (CTL clone M77.80): 0.5 nM
EC50 (CTL clone 1.13): 20 nM
recognition by the five CTL clones, in words [3]: reduced recognition for four of five
stability of peptide/HLA-A*0201 complexes (HLA-A*0201 [2]): intermediate stability
EC50 (TILN LAU 203; [8]): > 1000 nM
EC50 (TILN LAU 132; [8]): > 1000 nM

CC[C@H](C)[C@H](NC(=O)CNC(=O)[C@H](CCSC)NC(=O)[C@H](C)NC(=O)[C@@H](N)CCC(=O)O)C(=O)NCC(=O)N[C@H](C(=O)N[C@@H](CC(C)C)C(=O)N[C@H](C(=O)N[C@H](C(=O)O)C(C)C)[C@@H](C)O)[C@@H](C)CC [SEQ ID NO: 12]
EC50 (CTL clone M77.86): 550 nM
EC50 (CTL clone 7.10): > 1000 nM
EC50 [1]: 40 nM
EC50 (CTL clone M77.80): > 1000 nM
EC50 (CTL clone 1.13): > 10000 nM
recognition by the five CTL clones, in words [3]: recognition improved
stability of peptide/HLA-A*0201 complexes (HLA-A*0201 [2]): intermediate stability
EC50 (TILN LAU 203; [8]): > 1000 nM
EC50 (TILN LAU 132; [8]): > 1000 nM

CC[C@H](C)[C@H](NC(=O)CNC(=O)[C@H](C)NC(=O)[C@H](C)NC(=O)[C@@H](N)Cc1ccc(O)cc1)C(=O)NCC(=O)N[C@H](C(=O)N[C@@H](CC(C)C)C(=O)N[C@H](C(=O)N[C@H](C(=O)O)C(C)C)[C@@H](C)O)[C@@H](C)CC [SEQ ID NO: 13]
EC50 (CTL clone M77.86): 0.015 nM
Relative activity (CTL clone M77.86): 1000
EC50 (CTL clone 7.10): 35 nM
Relative activity (CTL clone 7.10): 1.4
EC50 [1]: > 1000 nM
Relative activity [1]: <0.3
EC50 (CTL clone M77.80): 1000 nM
Relative activity (CTL clone M77.80): 0.3
EC50 (CTL clone 1.13): > 10000 nM
Relative activity (CTL clone 1.13): <0.4
recognition by the five CTL clones, in words [3]: reduced recognition by the CTLs
recognition by a fifth CTL (panel of the CTLs): recognized
recognition by four of the CTLs (panel of the CTLs): equally well
recognition by two other CTLs (panel of the CTLs): not
Relative activity (TILN LAU 203; [9]): 20
EC50 (TILN LAU 203; [8]): 5 nM
Relative activity (TILN LAU 132; [9]): 30
EC50 (TILN LAU 132; [8]): 1 nM

CC[C@H](C)[C@H](NC(=O)CNC(=O)[C@H](C)NC(=O)[C@H](C)NC(=O)[C@@H](N)Cc1ccccc1)C(=O)NCC(=O)N[C@H](C(=O)N[C@@H](CC(C)C)C(=O)N[C@H](C(=O)N[C@H](C(=O)O)C(C)C)[C@@H](C)O)[C@@H](C)CC [SEQ ID NO: 14]
EC50 (CTL clone M77.86): 0.005 nM
Relative activity (CTL clone M77.86): 3000
EC50 (CTL clone 7.10): 7 nM
Relative activity (CTL clone 7.10): 7
EC50 [1]: > 1000 nM
Relative activity [1]: <0.3
EC50 (CTL clone M77.80): > 1000 nM
Relative activity (CTL clone M77.80): <0.3
EC50 (CTL clone 1.13): 200 nM
Relative activity (CTL clone 1.13): 20
recognition by the five CTL clones, in words [3]: reduced recognition by the CTLs
recognition by a fifth CTL (panel of the CTLs): not
recognition by four of the CTLs (panel of the CTLs): equally well
recognition by two other CTLs (panel of the CTLs): recognized
Relative activity (TILN LAU 203; [9]): 60
EC50 (TILN LAU 203; [8]): 1 nM
Relative activity (TILN LAU 132; [9]): 600
EC50 (TILN LAU 132; [8]): 0.05 nM

C[C@H](NC(=O)[C@@H](N)CCC(=O)O)C(=O)N[C@@H](CC(=O)O)C(=O)N1CCC[C@H]1C(=O)N[C@H](C(=O)NCC(=O)N[C@@H](Cc1c[nH]cn1)C(=O)N[C@@H](CO)C(=O)N[C@@H](Cc1ccc(O)cc1)C(=O)O)[C@@H](C)O [SEQ ID NO: 21]
Relative competitor activity (HLA-A*0201 [4]): <0.6
binding to HLA-A*0201 compared with SEQ ID NO: 2, in words (HLA-A*0201 [5]): no binding

Glu Ala Ala Gly Ile Gly Ile Ala Thr Val [SEQ ID NO: 23]
change in competitor activity, in words (HLA-A*0201 [6]): did not result in significant changes in activity

Glu Ala Ala Gly Ile Gly Ile Leu Ala Val [SEQ ID NO: 24]
change in competitor activity, in words (HLA-A*0201 [6]): did not result in significant changes in activity

ILTVILGVL [SEQ ID NO: 4, reference compound]
binding to HLA-A*0201 compared with SEQ ID NO: 2, in words (HLA-A*0201 [5]): comparable to SEQ ID NO: 2
relative binding activity, in words (HLA-A*0201 [7]): about the same as SEQ ID NO: 2
Relative activity (TILN LAU 203; [10]): <4 × 10^−3
EC50 (TILN LAU 203; [11]): > 10000 nM
Relative activity (TILN LAU 132; [10]): <1.5 × 10^−3
EC50 (TILN LAU 132; [11]): > 10000 nM

Lys Leu Val Val Val Gly Ala Val Gly Val [SEQ ID NO: 20]
lysis percentage (HLA-A*0201 [5]; peptide used alone, CTL clone 7 RAS, T2 cells): 80%
